Legend:
[1] = biological target: butyrylcholinesterase (BChE) horse serum (Equus caballus, UniProt P81908); experiment: Anticholinesterase inhibitory activity, BChE assay (Ellman's method); conditions: read-out: BChE assay IC50; means ± S.E.M. of three parallel measurements
Procedure: (§1) Herein, acetylcholinesterase (AChE) from electric eel and butyrylcholinesterase (BChE) horse serum was used. The acetylthiocholine iodide and butyryl thiocholine chloride were utilized as substrates.
(§2) The bioactivity tests were carried out in triplicate at four different concentrations. Results are given as IC50 (μg/mL). The data were the mean ± S.E.M. (standard error of the meaning) of triplicate analyses of each concentration under the 95 % reliability (p < 0.05).

[2] = biological target: tyrosinase; experiment: Tyrosinase inhibitory activity; type: biochemical; conditions: means ± S.E.M. of three parallel measurements
Procedure: The spectrophotometric analysis of tyrosinase inhibitory activities was performed according to the slightly modified literature procedures of Hearing.

[3] = biological target: acetylcholinesterase (AChE) from electric eel (Electrophorus electricus, UniProt O42275); conditions: read-out: AChE assay IC50; means ± S.E.M. of three parallel measurements
Sequence of acetylcholinesterase (AChE) from electric eel (O42275 24-633): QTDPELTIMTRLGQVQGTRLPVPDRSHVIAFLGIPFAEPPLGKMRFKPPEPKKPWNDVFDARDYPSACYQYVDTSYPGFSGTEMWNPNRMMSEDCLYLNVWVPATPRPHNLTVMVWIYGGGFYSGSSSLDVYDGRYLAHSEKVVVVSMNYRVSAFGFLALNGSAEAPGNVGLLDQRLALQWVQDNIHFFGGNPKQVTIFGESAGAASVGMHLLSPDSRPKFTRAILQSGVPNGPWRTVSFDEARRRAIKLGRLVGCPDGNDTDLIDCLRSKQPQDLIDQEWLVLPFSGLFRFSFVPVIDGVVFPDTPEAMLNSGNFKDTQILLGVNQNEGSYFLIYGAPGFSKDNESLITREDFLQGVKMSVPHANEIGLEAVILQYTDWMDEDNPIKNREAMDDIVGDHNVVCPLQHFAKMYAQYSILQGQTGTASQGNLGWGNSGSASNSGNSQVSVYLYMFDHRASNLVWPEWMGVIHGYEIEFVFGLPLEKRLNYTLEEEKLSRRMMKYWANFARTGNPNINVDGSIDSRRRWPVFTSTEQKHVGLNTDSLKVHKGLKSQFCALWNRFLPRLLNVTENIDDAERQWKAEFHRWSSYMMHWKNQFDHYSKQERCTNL
Procedure: as §1, §2

[4] = biological target: urease (Canavalia ensiformis, UniProt P07374); conditions: read-out: Urease assay IC50; means ± S.E.M. of three parallel measurements
Sequence of urease (P07374 whole entry, looked up): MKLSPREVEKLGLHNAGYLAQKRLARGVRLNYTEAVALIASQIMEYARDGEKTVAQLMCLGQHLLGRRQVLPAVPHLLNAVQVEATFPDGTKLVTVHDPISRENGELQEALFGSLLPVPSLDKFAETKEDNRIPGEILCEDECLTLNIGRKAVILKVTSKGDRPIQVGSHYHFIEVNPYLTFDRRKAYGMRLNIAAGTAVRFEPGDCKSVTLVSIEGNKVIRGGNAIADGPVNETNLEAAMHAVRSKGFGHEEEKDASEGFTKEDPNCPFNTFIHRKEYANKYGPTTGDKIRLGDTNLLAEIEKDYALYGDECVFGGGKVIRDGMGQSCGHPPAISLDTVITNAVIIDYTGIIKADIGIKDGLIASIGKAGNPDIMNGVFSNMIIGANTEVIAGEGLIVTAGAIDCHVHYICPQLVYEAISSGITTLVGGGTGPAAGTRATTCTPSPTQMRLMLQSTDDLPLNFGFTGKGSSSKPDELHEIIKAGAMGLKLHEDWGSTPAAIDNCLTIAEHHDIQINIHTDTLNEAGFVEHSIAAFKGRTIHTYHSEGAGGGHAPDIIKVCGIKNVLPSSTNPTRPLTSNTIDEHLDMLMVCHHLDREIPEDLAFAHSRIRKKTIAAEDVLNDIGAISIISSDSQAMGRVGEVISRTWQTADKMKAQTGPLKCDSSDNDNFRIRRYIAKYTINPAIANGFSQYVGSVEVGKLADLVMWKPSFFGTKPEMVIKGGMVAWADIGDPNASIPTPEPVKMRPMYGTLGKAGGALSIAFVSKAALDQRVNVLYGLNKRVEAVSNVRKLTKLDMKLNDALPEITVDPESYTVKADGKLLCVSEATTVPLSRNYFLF
Procedure: Solutions of chiral thioureas (1 – 17) were prepared at four different concentrations, i.e., 400, 200, 100, and 50 μM for urease inhibitory assay in EtOH. Additionally, EtOH was used as a control, while thiourea was used as urease standards. […] The spectrophotometric analysis of urease inhibitory activity was performed according to the literature procedures by measuring ammonia production using the indophenol method as described earlier [37].
as §2

Sequence of butyrylcholinesterase (BChE) horse serum (P81908 whole entry): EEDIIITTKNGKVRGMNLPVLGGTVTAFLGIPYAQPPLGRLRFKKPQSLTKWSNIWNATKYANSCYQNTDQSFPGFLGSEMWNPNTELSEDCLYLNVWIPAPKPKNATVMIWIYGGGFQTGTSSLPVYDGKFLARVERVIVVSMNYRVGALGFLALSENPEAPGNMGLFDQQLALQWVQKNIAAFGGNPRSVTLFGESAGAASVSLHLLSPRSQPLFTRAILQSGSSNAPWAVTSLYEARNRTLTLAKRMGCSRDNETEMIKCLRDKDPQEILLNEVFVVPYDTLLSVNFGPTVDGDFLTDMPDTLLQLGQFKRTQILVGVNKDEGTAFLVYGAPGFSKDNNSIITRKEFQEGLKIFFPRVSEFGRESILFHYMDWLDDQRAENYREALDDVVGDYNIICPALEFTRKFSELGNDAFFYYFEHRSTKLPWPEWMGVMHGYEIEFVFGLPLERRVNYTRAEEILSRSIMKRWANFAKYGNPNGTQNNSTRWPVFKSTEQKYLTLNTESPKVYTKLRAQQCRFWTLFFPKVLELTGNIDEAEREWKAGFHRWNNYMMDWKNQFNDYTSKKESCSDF

| Molecule | IC50 [1] [µM] | IC50 [2] [µM] | IC50 [3] [µM] | IC50 [4] [µM] |
| --- | --- | --- | --- | --- |
| N-(2-chloro-5-(trifluoromethyl)phenyl)-N′-(2-mercapto-carboxyethanyl)thiourea [Compound 9] | 80 ± 0.6 | 15700 ± 500 |  |  |
| N-(4-bromophenyl)-N′-(2-mercapto-carboxyethanyl)thiourea [Compound 2] | 75.1 ± 0.5 | 28800 ± 100 | 36.4 ± 0.2 |  |
| N-(4-cyanophenyl)-N′-(2-mercapto-carboxyethanyl)thiourea [Compound 7] | 84.4 ± 0.9 | 35000 ± 1100 | 46.8 ± 1.3 |  |
| N-(4-(diethylamino)phenyl)-N′-(2-mercapto-carboxyethanyl)thiourea [Compound 17] | 18.1 ± 0.5 | 5300 ± 800 | 3.9 ± 0.6 |  |
| N-(2,4-dimethoxyphenyl)-N′-(2-mercapto-carboxyethanyl)thiourea [Compound 10] | 45.8 ± 0.4 | 1500 ± 300 | 6.8 ± 1.1 |  |
| N-phenyl-N′-(2-mercapto-carboxyethanyl)thiourea [Compound 1] | 66 ± 0.1 | 9700 ± 1000 | 23.4 ± 1.2 |  |
| N-(4-(dimethylamino)phenyl)-N′-(2-mercapto-carboxyethanyl)thiourea [Compound 16] | 24.6 ± 0.7 | 4700 ± 300 | 4.2 ± 0.6 |  |
| NC(N)=S [Thiourea] |  |  |  | 24.2 ± 0.3 |
| N-(3,5-dimethoxyphenyl)-N′-(2-mercapto-carboxyethanyl)thiourea [Compound 13] | 37.2 ± 0.1 | 2200 ± 400 | 5.7 ± 1 |  |
| N-(4-chlorophenyl)-N′-(2-mercapto-carboxyethanyl)thiourea [Compound 3] | 72.8 ± 1.1 | 16100 ± 900 | 31.7 ± 0.8 |  |
| N-(3,4-dimethoxyphenyl)-N′-(2-mercapto-carboxyethanyl)thiourea [Compound 12] | 54 ± 1.3 | 1600 ± 600 | 7.8 ± 0.6 |  |
| N-(4-fluorophenyl)-N′-(2-mercapto-carboxyethanyl)thiourea [Compound 4] | 70.4 ± 0.9 | 12500 ± 300 | 28.5 ± 0.5 |  |
| N-(4-methoxyphenyl)-N′-(2-mercapto-carboxyethanyl)thiourea [Compound 6] | 58.2 ± 0.1 | 1900 ± 500 | 8.1 ± 0.9 |  |
| N-(5-chloro-2-methoxyphenyl)-N′-(2-mercapto-carboxyethanyl)thiourea [Compound 8] | 61.2 ± 0.5 | 4000 ± 600 | 9.5 ± 1.2 |  |
| N-(2,5-dichlorophenyl)-N′-(2-mercapto-carboxyethanyl)thiourea [Compound 15] | 82.9 ± 0.4 | 22200 ± 900 | 44.6 ± 0.3 |  |
| N-(2,5-dimethoxyphenyl)-N′-(2-mercapto-carboxyethanyl)thiourea [Compound 11] | 49.7 ± 0.9 | 2900 ± 200 | 7.2 ± 0.5 |  |
| N-(4-(trifluoromethyl)phenyl)-N′-(2-mercapto-carboxyethanyl)thiourea [Compound 5] | 64.3 ± 0.7 | 10400 ± 200 | 16.7 ± 0.2 |  |
| N-(3,4,5-trimethoxyphenyl)-N′-(2-mercapto-carboxyethanyl)thiourea [Compound 14] | 29.5 ± 1.1 | 1100 ± 100 | 4.8 ± 0.9 |  |
